Measurements reported in PubChem BioAssay (NCI).
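Exposure lasted 48 hours, with cells grown in 96-well plates and compounds tested at five concentrations. GI50 marks 50% less growth. TGI is the concentration that stops growth completely.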

Tests used:
Experiment in all cases: growth of human tumour cells (NCI), 48 h
786-0 renal = system: 786-0 renal
A498 renal = system: A498 renal
A549 NSCLC = system: A549 NSCLC
ACHN renal = system: ACHN renal
BT-549 breast = system: BT-549 breast
CAKI-1 renal = system: CAKI-1 renal
CCRF-CEM leukemia = system: CCRF-CEM leukemia
COLO 205 colon = system: COLO 205 colon
DU-145 prostate = system: DU-145 prostate
EKVX NSCLC = system: EKVX NSCLC
HCC-2998 colon = system: HCC-2998 colon
HCT-116 colon = system: HCT-116 colon
HCT-15 colon = system: HCT-15 colon
HL-60(TB) leukemia = system: HL-60(TB) leukemia
HOP-62 NSCLC = system: HOP-62 NSCLC
HOP-92 NSCLC = system: HOP-92 NSCLC
HS 578T breast = system: HS 578T breast
HT29 colon = system: HT29 colon
IGROV1 ovarian = system: IGROV1 ovarian
K-562 leukemia = system: K-562 leukemia
KM12 colon = system: KM12 colon
LOX IMVI melanoma = system: LOX IMVI melanoma
M14 melanoma = system: M14 melanoma
MALME-3M melanoma = system: MALME-3M melanoma
MCF7 breast = system: MCF7 breast
MDA-MB-231 breast = system: MDA-MB-231 breast
MDA-MB-435 = system: MDA-MB-435
MDA-MB-468 breast = system: MDA-MB-468 breast
MOLT-4 leukemia = system: MOLT-4 leukemia
NCI-H226 lung = system: NCI-H226 lung
NCI-H23 lung = system: NCI-H23 lung
NCI-H460 lung = system: NCI-H460 lung
NCI-H522 lung = system: NCI-H522 lung
NCI/ADR-RES ovarian = system: NCI/ADR-RES ovarian
OVCAR-3 ovarian = system: OVCAR-3 ovarian
OVCAR-4 ovarian = system: OVCAR-4 ovarian
OVCAR-5 ovarian = system: OVCAR-5 ovarian
OVCAR-8 ovarian = system: OVCAR-8 ovarian
PC-3 prostate = system: PC-3 prostate
RXF 393 renal = system: RXF 393 renal
SF-268 CNS = system: SF-268 CNS
SF-295 CNS = system: SF-295 CNS
SF-539 CNS = system: SF-539 CNS
SK-MEL-2 melanoma = system: SK-MEL-2 melanoma
SK-MEL-28 melanoma = system: SK-MEL-28 melanoma
SK-MEL-5 melanoma = system: SK-MEL-5 melanoma
SK-OV-3 ovarian = system: SK-OV-3 ovarian
SN12C renal = system: SN12C renal
SNB-19 CNS = system: SNB-19 CNS
SNB-75 CNS = system: SNB-75 CNS
SR leukemia = system: SR leukemia
SW-620 colon = system: SW-620 colon
T-47D breast = system: T-47D breast
TK-10 renal = system: TK-10 renal
U251 CNS = system: U251 CNS
UACC-257 melanoma = system: UACC-257 melanoma
UACC-62 melanoma = system: UACC-62 melanoma
UO-31 renal = system: UO-31 renal

For CC(=O)Oc1ccccc1C(=O)[Se]C(=NC(C)C)NC(C)C, the GI50 (786-0 renal) was 1.74 µM, the TGI (786-0 renal) was 3.21 µM and the GI50 (A498 renal) was 3.34 µM. The TGI (A498 renal) was 20.6 µM, the GI50 (A549 NSCLC) was 3.08 µM and the TGI (A549 NSCLC) was over 100 µM. For the same compound, the GI50 (ACHN renal) was 1.76 µM, the TGI (ACHN renal) was 3.16 µM and the GI50 (BT-549 breast) was 1.52 µM. The TGI (BT-549 breast) was 2.88 µM, the GI50 (CAKI-1 renal) was 1.68 µM and the TGI (CAKI-1 renal) was 3.05 µM. It also gave a GI50 (CCRF-CEM leukemia) of 3.17 µM, a TGI (CCRF-CEM leukemia) of over 100 µM and a GI50 (COLO 205 colon) of 2.35 µM. It also gave a TGI (COLO 205 colon) of 5.06 µM, a GI50 (DU-145 prostate) of 1.94 µM and a TGI (DU-145 prostate) of 3.59 µM. For the same compound, the GI50 (EKVX NSCLC) was 1.67 µM, the TGI (EKVX NSCLC) was 3.16 µM and the GI50 (HCC-2998 colon) was 1.86 µM. The TGI (HCC-2998 colon) was 3.43 µM, the GI50 (HCT-116 colon) was 1.6 µM and the TGI (HCT-116 colon) was 3.14 µM. The GI50 (HCT-15 colon) was 1.84 µM, the TGI (HCT-15 colon) was 3.69 µM and the GI50 (HL-60(TB) leukemia) was 2.18 µM. It also gave a TGI (HL-60(TB) leukemia) of 5.7 µM, a GI50 (HOP-62 NSCLC) of 0.777 µM and a TGI (HOP-62 NSCLC) of 2.4 µM. It also gave a GI50 (HOP-92 NSCLC) of 1.91 µM, a TGI (HOP-92 NSCLC) of 4.32 µM and a GI50 (HS 578T breast) of 2.4 µM. For the same compound, the TGI (HS 578T breast) was 9.15 µM, the GI50 (HT29 colon) was 2.31 µM and the TGI (HT29 colon) was 5.84 µM. For the same compound, the GI50 (IGROV1 ovarian) was 1.72 µM, the TGI (IGROV1 ovarian) was 3.23 µM and the GI50 (K-562 leukemia) was 2.84 µM. For the same compound, the TGI (K-562 leukemia) was 9.19 µM, the GI50 (KM12 colon) was 1.9 µM and the TGI (KM12 colon) was 3.86 µM. The GI50 (LOX IMVI melanoma) was 1.75 µM, the TGI (LOX IMVI melanoma) was 3.42 µM and the GI50 (M14 melanoma) was 1.84 µM. The TGI (M14 melanoma) was 3.37 µM, the GI50 (MALME-3M melanoma) was 1.86 µM and the TGI (MALME-3M melanoma) was 3.45 µM. For the same compound, the GI50 (MCF7 breast) was 1.95 µM, the TGI (MCF7 breast) was 4 µM and the GI50 (MDA-MB-231 breast) was 2.16 µM. For the same compound, the TGI (MDA-MB-231 breast) was 4.96 µM, the GI50 (MDA-MB-435) was 1.73 µM and the TGI (MDA-MB-435) was 3.24 µM. It also gave a GI50 (MDA-MB-468 breast) of 1.75 µM, a TGI (MDA-MB-468 breast) of 3.48 µM and a GI50 (MOLT-4 leukemia) of 2.35 µM. It also gave a TGI (MOLT-4 leukemia) of 6.15 µM, a GI50 (NCI-H226 lung) of 1.84 µM and a TGI (NCI-H226 lung) of 5.7 µM. It also gave a GI50 (NCI-H23 lung) of 1.94 µM, a TGI (NCI-H23 lung) of 4.15 µM and a GI50 (NCI-H460 lung) of 0.815 µM. It also gave a TGI (NCI-H460 lung) of 4.39 µM, a GI50 (NCI-H522 lung) of 1.69 µM and a TGI (NCI-H522 lung) of 3.32 µM. It also gave a GI50 (NCI/ADR-RES ovarian) of 2.22 µM, a TGI (NCI/ADR-RES ovarian) of 4.98 µM and a GI50 (OVCAR-3 ovarian) of 1.9 µM. The TGI (OVCAR-3 ovarian) was 3.56 µM, the GI50 (OVCAR-4 ovarian) was 1.72 µM and the TGI (OVCAR-4 ovarian) was 3.13 µM. For the same compound, the GI50 (OVCAR-5 ovarian) was 1.76 µM, the TGI (OVCAR-5 ovarian) was 3.34 µM and the GI50 (OVCAR-8 ovarian) was 1.87 µM. The TGI (OVCAR-8 ovarian) was 3.58 µM, the GI50 (PC-3 prostate) was 1.7 µM and the TGI (PC-3 prostate) was 3.61 µM. The GI50 (RXF 393 renal) was 1.72 µM, the TGI (RXF 393 renal) was 3.17 µM and the GI50 (SF-268 CNS) was 2.34 µM. It also gave a TGI (SF-268 CNS) of 6.35 µM, a GI50 (SF-295 CNS) of 0.369 µM and a TGI (SF-295 CNS) of 1.63 µM. The GI50 (SF-539 CNS) was 1.75 µM, the TGI (SF-539 CNS) was 3.15 µM and the GI50 (SK-MEL-2 melanoma) was 1.97 µM. For the same compound, the TGI (SK-MEL-2 melanoma) was 4.01 µM, the GI50 (SK-MEL-28 melanoma) was 1.79 µM and the TGI (SK-MEL-28 melanoma) was 3.27 µM. For the same compound, the GI50 (SK-MEL-5 melanoma) was 1.83 µM, the TGI (SK-MEL-5 melanoma) was 3.51 µM and the GI50 (SK-OV-3 ovarian) was 1.81 µM. The TGI (SK-OV-3 ovarian) was 3.33 µM, the GI50 (SN12C renal) was 1.72 µM and the TGI (SN12C renal) was 3.16 µM. It also gave a GI50 (SNB-19 CNS) of 1.09 µM, a TGI (SNB-19 CNS) of 2.37 µM and a GI50 (SNB-75 CNS) of 1.35 µM. The TGI (SNB-75 CNS) was 2.66 µM, the GI50 (SR leukemia) was 2.11 µM and the TGI (SR leukemia) was 5.44 µM. The GI50 (SW-620 colon) was 1.92 µM, the TGI (SW-620 colon) was 4.11 µM and the GI50 (T-47D breast) was 2.2 µM. The TGI (T-47D breast) was 5.26 µM, the GI50 (TK-10 renal) was 1.63 µM and the TGI (TK-10 renal) was 3.07 µM. The GI50 (U251 CNS) was 1.53 µM, the TGI (U251 CNS) was 3.2 µM and the GI50 (UACC-257 melanoma) was 1.96 µM. For the same compound, the TGI (UACC-257 melanoma) was 3.75 µM, the GI50 (UACC-62 melanoma) was 1.94 µM and the TGI (UACC-62 melanoma) was 4.15 µM. For the same compound, the GI50 (UO-31 renal) was 1.68 µM and the TGI (UO-31 renal) was 3.05 µM.
